Experimental data taken from paper PMC11079064, “Discovery of a brain penetrant small molecule antagonist targeting LPA1 receptors to reduce neuroinflammation and promote remyelination in multiple sclerosis” (Scientific Reports, 2024).

What was measured:
[1] = biological target: T1, human LPA1 (Homo sapiens, UniProt Q92633); assay: Competitive membrane filter radioligand binding assay; details: membranes from cells overexpressing human LPA1, LPA1 selective radioligand
T1 construct: expressed in transfected cells
Experimental: Binding assay: Membranes were prepared from B103 cells stably expressing human LPA1 receptor. Cells were resuspended in a hypotonic buffer containing 0.25 M sucrose/0.2 mM EDTA. After 30 min on ice, cells were centrifuged at 41,415 × g. Membrane pellet was resuspended in 20 mM HEPES, pH 7.4 storage buffer and centrifuged at 41,415 × g. Membranes were resuspended in storage buffer + 1 mM dithiothreitol. Protein was quantified using the DC Protein Assay (Bio-Rad, Hercules, CA), aliquoted, and stored at – 80 °C until assay. A tritiated LPA1 selective antagonist[10] was used as radiolabeled ligand. […] The plates were shaken at 300 rpm for 2 h at room temperature. GF/B plates assay filter plates (Perkin Elmer, Boston, MA, Waltham, MA) were prepared by adding 50 µl of 0.5% polyethylenimine (Millipore Sigma, St. Louis, MO) and incubated at room temperature for > 30 min. The assay was terminated by vacuum filtration (Brandel Harvester). Plates were washed 3 × with 2 ml ice cold buffer containing 50 mM HEPES + 100 mM NaCl + 2 mM EDTA, pH 7.4. Once dry, 50 µl of Betaplate Scintillation Cocktail (Perkin Elmer, Boston, MA) was added to each well. After a 20 min incubation, plates were read on the Perkin Elmer TopCount.

[2] = Plasma concentration time course after oral dose; type: in vivo; details: 3 mg/kg oral, mouse
[3] = tested on: human cortical slice cultures; assay: Human cortical slice culture, Mbp transcript by qPCR; type: cell-based; details: 9 days treatment; read-out: EC50 of Mbp increase by qPCR
Experimental: Cortical slices from regions containing both white and gray matter were generated from fresh human adult donor tissue and cultured for 10 days.
(§1) Human donor brain was received 14 h after death on wet ice. Upon receipt, the brain was immediately placed into-ice cold DPBS without calcium or magnesium. Cortical regions containing gray-white border were isolated then sliced on a McIlwain tissue chopper set at 400 µm thickness. […] Slices were then processed for qPCR or immunohistochemistry.
Evaluation of Mbp transcript in human brain slice culture: After compound treatment, slices were immediately transferred to lysis buffer and RNA extracted using the RNEasy Mini kit (Qiagen). Reverse transcription was performed using QScript (QuantaBio) followed by qPCR with Perfecta PCR SuperMix (QuantaBio) on a StepOne Plus Thermocycler (ABI). Primers used were as follows: 18S rRNA F: […] R: […]; Mbp: […] R: […]. Cycling parameters: 95 °C 30 s, then repeat 45×: 95 °C for 5 s, 60 °C for 15 s, followed by melt curve analysis. Data was calculated using 2^−ΔΔCt , normalizing to 18S RNA and vehicle.

[4] = tested on: human cortical slice cultures; assay: Human cortical slice culture, CC1+ cells by immunohistochemistry; type: cell-based
Experimental: as §1
Immunohistological evaluation of oligodendrocytes in human brain slice culture: After compound treatment, slices were fixed in 4% PFA overnight. Slices were gently lifted from the membrane insert and washed with at least five 15 min washes in DPBS containing 0.5% Triton-X 100 (0.5%-DPBS) followed by overnight incubation in primary antibodies in blocking solution. Antibodies used were CC-1 (mouse, 1:250, Millipore, Temecula, CA), Olig2 (rabbit 1:250 CellMarque). Slices were washed with at least five 15 min washes in 0.5%-DPBS followed by incubation with secondary antibodies (anti-mouse Alexa488; anti-rabbit, Alexa568, and Hoechst counterstain) in 0.5%-DPBS. All secondary antibodies were produced in goat (Invitrogen, Carlsbad, CA, Carlsbad, CA) and used at 1:250. Filters were excised from insert, mounted with Fluoromount (Millipore Sigma, St. Louis) on a microscope slide and coverslipped. 2 images per slice were acquired using a Nikon A1R confocal microscope and NIS-Elements software. Images were thresholded and counted using ImageJ.

[5] = tested on: rat brain meningeal fibroblasts; assay: LPA-induced activation of rat meningeal fibroblasts (COL1+ area); type: cell-based; details: LPA stimulation, read-out: IC50 of inhibition of increase in COL1+ area
Experimental: Recent work from Dorrier et al., has implicated persistent fibrotic scarring in the CNS in the mouse EAE model and that the contributing cells were of meningeal origin. […] We cultured primary rat or human brain meningeal fibroblasts and applied 10 µM LPA to induce activation. Upon LPA stimulation, we saw a change in morphology that could be quantified as a change in collagen I (COL1^+) area.
Meningeal fibroblasts were isolated from postnatal day 8 CD-1 rats (Charles River Labs, Willington, MA). Meninges were peeled off and digested in Accutase (Thermo Fisher, Waltham, MA, Waltham, MA) for 20 min at room temperature. […] was added to stop protease activity. Digested meninges were dissociated by trituration and cells were strained through a 40 µm nylon mesh and spun down at 800 g for 15 min. The cell pellet was resuspended in DMEM + 10% FBS and plated in a T-75 flask (Corning) for 10 days. Cells were lifted with Accutase and replated into 96-well Perkin Elmer, Boston, MA Viewplates, at 15k per well. The next day, cells were starved in DMEM for 8 h. […] 1 µM LPA or vehicle were added for 5 h. […] Primary antibody was detected using a goat-anti-mouse Alexa488 secondary antibody (Invitrogen, Carlsbad, CA, 1:250) with Hoechst. Wells were imaged on Nikon A1R confocal and Col1^+ area measured normalized to cell number (Hoechst count). […]

T1 sequence (Q92633 whole entry): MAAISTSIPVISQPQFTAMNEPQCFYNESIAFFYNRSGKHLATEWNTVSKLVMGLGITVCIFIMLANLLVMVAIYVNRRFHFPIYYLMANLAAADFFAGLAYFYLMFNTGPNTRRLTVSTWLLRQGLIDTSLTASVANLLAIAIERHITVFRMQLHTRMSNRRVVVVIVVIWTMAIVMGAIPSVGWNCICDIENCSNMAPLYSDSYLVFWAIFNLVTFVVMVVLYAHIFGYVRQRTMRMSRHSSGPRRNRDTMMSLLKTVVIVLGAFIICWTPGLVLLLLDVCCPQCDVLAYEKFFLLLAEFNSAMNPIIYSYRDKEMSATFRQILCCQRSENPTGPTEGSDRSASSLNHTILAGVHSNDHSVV

IC50 [1]: 2.63 nM
plasma concentration after 3 days [2]: below the limit of detection
time of peak plasma concentration [2]: 2 h
EC50 [3]: 4.2 nM
SMILES: COc1ccc(NC(=O)N(c2ccccc2C(C)C)C2CCC(C(=O)O)CC2)c(OC(F)F)n1 (stereo not shown) [PIPE-791]
CC1+ cells ([4]; 100 nM): significant increase
differentiation by number of CC1+ cells ([4]; 300 nM): significant differentiation
IC50 [5]: 31.8 nM
